Where a chain is given by its changes, count along the chain named. Like-named read-outs stand apart in the source and are kept apart here.
Key:
mutant MGL = target: T1, mutant MGL (Homo sapiens, UniProt Q99685, L169S/L176S); assay: MGL ThermoFluor assay - mutant; format: binding
T1 sequence (Q99685 1-303 L169S/L176S): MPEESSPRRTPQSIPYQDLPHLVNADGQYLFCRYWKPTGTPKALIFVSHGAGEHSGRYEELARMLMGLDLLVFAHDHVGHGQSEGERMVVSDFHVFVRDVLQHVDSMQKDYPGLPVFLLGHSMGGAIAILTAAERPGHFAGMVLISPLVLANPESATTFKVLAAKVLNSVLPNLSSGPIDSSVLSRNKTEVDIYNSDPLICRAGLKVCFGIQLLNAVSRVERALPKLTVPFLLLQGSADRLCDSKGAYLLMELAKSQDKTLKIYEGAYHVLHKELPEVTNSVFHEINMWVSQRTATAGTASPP

[1] = target: T2, purified wild type MGL (wt-MGLL 6H-11-313) (Homo sapiens, UniProt Q99685)
T2 sequence (Q99685 1-303): T1 sequence (Q99685 1-303 L169S/L176S) with S169L, S176L

[2] = ThermoFluor concentration-response, read-out: MGL mutant ThermoFluor Kd
[3] = ThermoFluor, compound concentration measured by qNMR, read-out: MGL mutant ThermoFluor qKd (using qNMR conc.)
[4] = compound concentration measured by qNMR, read-out: MGL mutant ThermoFluor qKd (using qNMR conc.)
[5] = ThermoFluor thermal stability binding assay, read-out: MGL mutant ThermoFluor Kd
[6] = ThermoFluor, compound concentration measured by qNMR, read-out: MGL mutant ThermoFluor qKd (μM) (using qNMR conc.)

Row | Kd (mutant MGL; [2]) | IC50 [1] | SMILES | further results
1 | 0.167 µM | 135 nM | O=C(c1ccc(Oc2cccc(F)n2)cc1)N1CC(N2CCN(C(=O)c3nccs3)CC2)C1 [Cpd 715] | 
2 |  | 848 nM | O=C(c1cscn1)N1CCN(C2CN(C(=O)c3[nH]c4nc(C(F)(F)F)ccc4c3Br)C2)CC1 [Cpd 774] | Kd (mutant MGL; [3]): 0.254 µM
3 | 0.025 µM | < 5 nM | N#Cc1cc(-n2ccc3cc(C(=O)N4CC(N5CCN(C(=O)c6nccs6)CC5)C4)ccc32)ccc1F [Cpd 1417, 2-Fluoro-5-[5-({3-[4-(1,3-thiazol-2-ylcarbonyl)piperazin-1-yl]azetidin-1-yl}carbonyl)-1H-indol-1-yl]benzonitrile] | 
4 |  | < 5 nM | O=C(c1ccc2c(-c3cccc(F)c3)c[nH]c2c1)N1CC(N2CCN(C(=O)c3nccs3)CC2)C1 [Cpd 1319] | Kd (mutant MGL; [4]): 0.001 µM
5 | 0.002 µM | < 5 nM | O=C(c1ccc(-c2nc(-c3ccccc3Cl)cs2)cc1)N1CC(N2CCN(C(=O)c3nccs3)CC2)C1 [Cpd 1328] | 
6 | 0.257 µM | 902 nM | CC(C)(C)c1cc(C(=O)N2CC(N3CCN(C(=O)c4nccs4)CC3)C2)cc(C(C)(C)C)c1 [Cpd 776] | 
7 |  | 1610 nM | Cc1nc(-c2ccncc2)sc1C(=O)N1CC(N2CCN(C(=O)c3nccs3)CC2)C1 [Cpd 1272] | Kd (mutant MGL; [3]): 0.399 µM
8 | 1.43 µM | 8820 nM | O=C(c1ccc2nc(C(F)(F)F)cc(Cl)c2c1)N1CCN(C2CN(C(=O)c3cscn3)C2)CC1 [Cpd 859] | 
9 |  | < 5 nM | O=C(c1ccc2c(cnn2Cc2ccc(F)cc2)c1)N1CC(N2CCN(C(=O)c3nccs3)CC2)C1 [Cpd 1029, 1-(4-Fluorobenzyl)-5-({3-[4-(1,3-thiazol-2-ylcarbonyl)piperazin-1-yl]azetidin-1-yl}carbonyl)-1H-indazole] | Kd (mutant MGL; [4]): 0.006 µM
10 |  | 2640 nM | CCNC(=O)COc1ccc(C(=O)N2CC(N3CCN(C(=O)c4nccs4)CC3)C2)cc1 [Cpd 816] | Kd (mutant MGL; [3]): 2.84 µM
11 | 0.095 µM | 421 nM | O=C(c1ccc(Oc2ccccn2)c(Cl)c1)N1CC(N2CCN(C(=O)c3nccs3)CC2)C1 [Cpd 752] | 
12 | 0.132 µM | 419 nM | CCCCC/C=C\C/C=C\C/C=C\C/C=C\CCCC(=O)N1CC(N2CCN(C(=O)c3nccs3)CC2)C1 [Cpd 639] | 
13 | 1.14 µM | 173 nM | COc1ccc2c(C)c(C(=O)N3CC(N4CCN(C(=O)c5nccs5)CC4)C3)oc2c1 [Cpd 721] | 
14 |  | 455 nM | O=C(c1ccccc1)N1CCN(C2CN(C(=O)c3sc4cc(C(F)(F)F)ccc4c3C3CC3)C2)CC1 [Cpd 515] | Kd (mutant MGL; [5]): 0.011 µM
15 | > 31 µM | 2430 nM | Cc1c(C(=O)N2CCN(C3CN(C(=O)c4nc(C(F)(F)F)cs4)C3)CC2)sc2cc(C(F)(F)F)ccc12 [Cpd 814] | 
16 | 0.031 µM | 285 nM | Cc1ccc2sc(C(=O)N3CC(N4CCN(C(=O)c5cscn5)CC4)C3)c(C(F)(F)F)c2c1 [Cpd 737, 1-(1-{[5-Methyl-3-(trifluoromethyl)-1-benzothiophen-2-yl]carbonyl}azetidin-3-yl)-4-(1,3-thiazol-4-ylcarbonyl)piperazine] | 
17 |  | 808 nM | O=C(c1ccc(-c2ccccc2)cc1)N1CC(N2CCN(C(=O)C3CC3(F)F)CC2)C1 (centres unmarked) [Cpd 1256] | Kd (mutant MGL; [5]): 0.393 µM
18 | 10 µM | 5400 nM | O=C(c1ccccc1)N1CCN(C2CN(C(=O)c3ccc(CS(=O)(=O)c4cccc(C(F)(F)F)c4)cc3)C2)CC1 [Cpd 564] | 
19 |  | < 5 nM | O=C(c1cc(-c2cccc(C(F)(F)F)c2)cs1)N1CC(N2CCN(C(=O)c3nccs3)CC2)C1 [Cpd 1321] | Kd (mutant MGL; [6]): 0.067 µM
20 |  | < 5 nM | O=C(c1ccc2c(cnn2-c2cccc(C(F)(F)F)c2)c1)N1CC(N2CCN(C(=O)c3nccs3)CC2)C1 [Cpd 1419] | Kd (mutant MGL; [5]): 0.004 µM
21 |  | 827 nM | O=C(c1nccs1)N1CCN(C2CN(C(=O)c3cccc4oc(-c5ccc(F)cc5)nc34)C2)CC1 [Cpd 1257] | Kd (mutant MGL; [5]): 0.009 µM
22 | 0.041 µM | 2290 nM | O=C(c1cscn1)N1CC(N2CCN(C(=O)c3ccc(-c4ccccc4)cc3)C(Cc3ccccc3)C2)C1 (centres unmarked) [Cpd 1284, 2-Benzyl-1-(biphenyl-4-ylcarbonyl)-4-[1-(1,3-thiazol-4-ylcarbonyl)azetidin-3-yl]piperazine] | 
23 |  | 3150 nM | Cc1c(C(=O)N2CC(N3CCN(C(=O)c4ccc[nH]4)CC3)C2)nc2ccc(Br)cn12 [Cpd 825] | Kd (mutant MGL; [3]): 4.86 µM
24 |  | 1260 nM | O=C(c1ccc(-c2ccccc2)cc1)N1CC(N2CCN(C(=O)c3c[nH]nn3)CC2)C1 [Cpd 1269] | Kd (mutant MGL; [5]): 1.16 µM
25 |  | 219 nM | Cc1cc(C(=O)N2CC(N3CCN(C(=O)c4nccs4)CC3)C2)ccc1Br [Cpd 727] | Kd (mutant MGL; [3]): 0.251 µM

Row | Kd (mutant MGL; [2]) | IC50 [1] | SMILES | further results
26 |  | 9 nM | O=C(c1ccc(-c2cccc(C(F)(F)F)c2)cc1)N1CC(N2CCN(C(=O)c3ncco3)CC2)C1 [Cpd 1085] | Kd (mutant MGL; [6]): 0.008 µM
27 |  | 270 nM | O=C(c1nccs1)N1CCN(C2CN(C(=O)c3cn(-c4ccc(F)cc4)c4ccccc34)C2)CC1 [Cpd 1224] | Kd (mutant MGL; [6]): 0.189 µM
28 | 0.002 µM | < 5 nM | O=C(c1ccc2c(ccn2-c2cccc(C(F)(F)F)c2)c1)N1CC(N2CCN(C(=O)c3nccs3)CC2)C1 [Cpd 1356, 5-({3-[4-(1,3-Thiazol-2-ylcarbonyl)piperazin-1-yl]azetidin-1-yl}carbonyl)-1-[3-(trifluoromethyl)phenyl]-1H-indole] | 
29 | 0.16 µM | 268 nM | O=C(c1ccc2[nH]c(C3CCCCC3)nc2c1)N1CC(N2CCN(C(=O)c3nccs3)CC2)C1 [Cpd 735] | 
30 | 0.042 µM | 506 nM | O=C(c1ccc(-c2ccccc2)cc1)N1CCN(C2CN(C(=O)c3cscn3)C2)CC1 [Cpd 1246, 1-(Biphenyl-4-ylcarbonyl)-4-[1-(1,3-thiazol-4-ylcarbonyl)azetidin-3-yl]piperazine] | 
31 | 10 µM | 8570 nM | O=C(c1ccccc1)N1CCN(C2CN(C(=O)c3ccc(Oc4cccnc4)cc3)C2)CC1 [Cpd 527] | 
32 | 2.5 µM | 6990 nM | O=C(c1ccccc1)N1CCN(C2CN(C(=O)c3ccc(Oc4ccccn4)c(Cl)c3)C2)CC1 [Cpd 525] | 
33 | 0.207 µM | 101 nM | O=C(c1nccs1)N1CCN(C2CN(C(=O)c3nn(-c4ccc(Cl)cc4Cl)c4c3CCC/C4=C\c3ccc(Cl)cc3)C2)CC1 [Cpd 1018] | 
34 |  | 2780 nM | Cc1nc2cc(C(=O)N3CC(N4CCN(C(=O)c5cscn5)CC4)C3)ccc2n1-c1ccc(F)cc1 [Cpd 1291] | Kd (mutant MGL; [4]): 0.179 µM
35 | 0.04 µM | 845 nM | O=C(c1ccc2c(c1)CCN2C(=O)C1CC1)N1CC(N2CCN(C(=O)c3nccs3)CC2)C1 [Cpd 773] | 
36 | 3.09 µM | 667 nM | O=C(c1ccc(Oc2ccc(Br)cn2)cc1)N1CC(N2CCN(C(=O)c3cscn3)CC2)C1 [Cpd 765] | 
37 |  | < 5 nM | O=C(c1ccc(-n2cc(-c3ccc(Cl)cc3)cn2)cc1)N1CC(N2CCN(C(=O)c3nccs3)CC2)C1 [Cpd 1334] | Kd (mutant MGL; [6]): 0.08 µM
38 |  | 10300 nM | Cc1nc2cc(C(=O)N3CC(N4CCN(C(=O)c5cscn5)CC4)C3)ccc2n1CCC(F)(F)F [Cpd 866] | Kd (mutant MGL; [4]): 0.824 µM
39 | 0.015 µM | 118 nM | O=C(Nc1ccc(C(=O)N2CC(N3CCN(C(=O)c4nccs4)CC3)C2)cc1)C1CCCCC1 [Cpd 709] | 
40 |  | 65 nM | O=C1c2ccccc2-c2ccc(C(=O)N3CC(N4CCN(C(=O)c5nccs5)CC4)C3)cc21 [Cpd 698] | Kd (mutant MGL; [3]): 0.085 µM
41 | 0.833 µM | 6900 nM | O=C(c1ccc2nc(C(F)(F)F)cc(Cl)c2c1)N1CC(N2CCN(C(=O)c3cscn3)CC2)C1 [Cpd 848] | 
42 |  | 19 nM | O=C(c1ccc(-n2cc(-c3cc(F)cc(F)c3)cn2)cc1)N1CC(N2CCN(C(=O)c3nccs3)CC2)C1 [Cpd 1123] | Kd (mutant MGL; [3]): 1.35 µM
43 | 0.034 µM | 191 nM | O=C(c1ccc2c(c1)[nH]c(=O)n2-c1ccccc1)N1CC(N2CCN(C(=O)c3nccs3)CC2)C1 [Cpd 933, 1-Phenyl-5-({3-[4-(1,3-thiazol-2-ylcarbonyl)piperazin-1-yl]azetidin-1-yl}carbonyl)-1,3-dihydro-2H-benzimidazol-2-one] | 
44 | 0.727 µM | 454 nM | O=C(c1ccccc1)N1CCN(C2CN(C(=O)c3ccc(Oc4cccc(C(F)(F)F)c4)nc3)C2)CC1 [Cpd 514] | 
45 |  | 12 nM | CC1(C)c2ccccc2-c2ccc(C(=O)N3CC(N4CCN(C(=O)c5nccs5)CC4)C3)cc21 [Cpd 952] | Kd (mutant MGL; [3]): 0.019 µM
46 |  | 463 nM | O=C(c1cc2ccc(-c3cccnc3F)cc2[nH]1)N1CC(N2CCN(C(=O)c3nccs3)CC2)C1 [Cpd 1244] | Kd (mutant MGL; [6]): 0.589 µM
47 |  | 706 nM | O=C(c1nccs1)N1CCN(C2CN(C(=O)c3cccc4nc(-c5ccco5)[nH]c34)C2)CC1 [Cpd 1252] | Kd (mutant MGL; [5]): 0.386 µM
48 |  | 5270 nM | Cc1cc(C(=O)N2CC(N3CCN(C(=O)c4nccs4)CC3)C2)c(C)n1Cc1ccc(S(N)(=O)=O)cc1 [Cpd 1042] | Kd (mutant MGL; [3]): 5 µM
49 |  | 154 nM | Cc1c(C(=O)N2CC(N3CCN(C(=O)c4nccs4)CC3)C2)[nH]c2ccc(F)cc12 [Cpd 719] | Kd (mutant MGL; [3]): 0.119 µM

— patent US8362000B2, “Azetidinyl diamides as monoacylglycerol lipase inhibitors” (Janssen Pharmaceutica NV, priority 2009, dated 2013)
